“And” between values parts separate entries of the source, which are not always exact repeats. Equal values may be shown once.
Assay: In vitro metabolic blocking of HCV NS3/4a protease inhibitors by compound of formula (II) in human liver microsomes
Format: in vitro ADME
Conditions: for % Detected Compound, Incubation time: 30′, Compound of formula (II) / % Detected Compound, Incubation time: 120′, Compound of formula (II): 3 μM test compound + 10 μM compound of formula (II); for % Detected Compound, Incubation time: 30′, Compound of formula (II) / % Detected Compound, Incubation time: 120′, Compound of formula (II) / % Detected Compound, Incubation time: 30′, No Booster / % Detected Compound, Incubation time: 120′, No Booster: human liver microsomes 1 mg/ml, 37° C., % of initial concentration; for % Detected Compound, Incubation time: 30′, Compound of formula (II) / % Detected Compound, Incubation time: 30′, No Booster: 30 min; for % Detected Compound, Incubation time: 120′, Compound of formula (II) / % Detected Compound, Incubation time: 120′, No Booster: 120 min; for % Detected Compound, Incubation time: 30′, No Booster / % Detected Compound, Incubation time: 120′, No Booster: 3 μM test compound
Description: Different HCV NS3/4a protease inhibitors were tested in a metabolic blocking experiment using 3 μM test compound together with 10 μM of compound of formula (II) acting as a cytochrome P450 inhibitor (or booster).
Test compounds and compound of formula (II) were added to human liver microsomes (protein concentration 1 mg/ml) suspended in potassium phosphate buffer (pH=7.4), to get final reaction mixture concentrations of 3 μM test compound and 10 μM of compound of formula (II). In the non-boosted parallel reactions, compound of formula (II) was not added. Boiled human liver microsomes were used for blank experiments. After addition (in a 1:3 ratio) of a cofactor mixture consisting of β-nicotinamide adenine dinucleotide phosphate (β-NADP, 0.5 mg/ml, 653.2 μM), D-Glucose-6-phosphate (2 mg/ml, 7.1 mM), Glucose-6-phosphate dehydrogenase (1.5 U/ml) in 2% NaHCO3, the reaction mixture was incubated at 37° C. for 30 or 120 minutes after which the reaction was stopped by increasing the temperature to 95° C. Test compound concentrations were determined using HPLC-MS.
Values are percentages of test compound detected after the indicated incubation times as compared to the initial test compound concentration. In Table 3, each value is the mean of the results of two independent experiments. In Table 4, each value is the result of an independent experiment.

[1] = mean of two independent experiments
[2] = each value one independent experiment

SMILES | % Detected Compound, Incubation time: 30′, Compound of formula (II) [1] [%] | % Detected Compound, Incubation time: 120′, Compound of formula (II) [1] [%] | % Detected Compound, Incubation time: 30′, No Booster [1] [%] | % Detected Compound, Incubation time: 120′, No Booster [1] [%] | % Detected Compound, Incubation time: 30′, Compound of formula (II) [2] | % Detected Compound, Incubation time: 120′, Compound of formula (II) [2] | % Detected Compound, Incubation time: 30′, No Booster [2] | % Detected Compound, Incubation time: 120′, No Booster [2] | blocking of test compound metabolisation (10 μM compound of formula (II) added to 3 μM test compound, human liver microsomes)
COc1ccc2c(O[C@@H]3C[C@H]4C(=O)N[C@]5(C(=O)O)C[C@H]5/C=C\CCCCC[C@H](NC(=O)OC5CCCC5)C(=O)N4C3)cc(-c3csc(NC(C)C)n3)nc2c1 [BILN-2061, reference compound] | 163 | 128 | 129 | 76 | – | – | – | – | –
COc1ccc2c(O[C@@H]3C[C@H]4C(=O)N[C@]5(C(=O)NS(=O)(=O)C6CC6)C[C@H]5/C=C\CCCCN(C)C(=O)[C@@H]4C3)cc(-c3nc(C(C)C)cs3)nc2c1 [Compound 7] | 166 | 160 | 141 | 48 | – | – | – | – | –
COc1ccc2c(O[C@@H]3C[C@H]4C(=O)N[C@]5(C(=O)NS(=O)(=O)C6CC6)C[C@H]5/C=C\CCCCN(C)C(=O)[C@@H]4C3)cc(-c3nc(C(C)C)cs3)nc2c1C [Compound 13] | – | – | – | – | 43% and 83% | 51% and 95% | 90% and 87% | 89% and 82% | –
COc1ccc2c(O[C@@H]3C[C@H]4C(=O)N[C@]5(C(=O)NS(=O)(=O)C6CC6)C[C@H]5/C=C\CCCCCNC(=O)N4C3)cc(-c3nc(C(C)C)cs3)nc2c1 [Compound 18] | 131 | 196 | 42 | 0 | – | – | – | – | –

Now from value to molecule:

% Detected Compound, Incubation time: 30′, Compound of formula (II) [1] [%] | % Detected Compound, Incubation time: 120′, Compound of formula (II) [1] [%] | % Detected Compound, Incubation time: 30′, No Booster [1] [%] | % Detected Compound, Incubation time: 120′, No Booster [1] [%] | % Detected Compound, Incubation time: 30′, Compound of formula (II) [2] | % Detected Compound, Incubation time: 120′, Compound of formula (II) [2] | % Detected Compound, Incubation time: 30′, No Booster [2] | % Detected Compound, Incubation time: 120′, No Booster [2] | blocking of test compound metabolisation (10 μM compound of formula (II) added to 3 μM test compound, human liver microsomes) | SMILES
151 | 135 | 109 | 25 | – | – | – | – | – | COc1ccc2c(O[C@@H]3C[C@H]4C(=O)N[C@]5(C(=O)NS(=O)(=O)C6CC6)C[C@H]5/C=C\CCCCN(C)C(=O)N4C3)cc(-c3nc(C(C)C)cs3)nc2c1 [Compound 21]
– | – | – | – | – | – | – | – | almost complete blocking | CC(C)CN(C[C@H](O)[C@@H](Cc1ccccc1)NC(=O)OCc1cncs1)S(=O)(=O)c1ccc2nc(N)oc2c1 [compound of formula (II)]
128 | 101 | 16 | 0 | – | – | – | – | – | COc1ccc2c(O[C@@H]3C[C@H]4C(=O)N[C@]5(C(=O)NS(=O)(=O)C6CC6)C[C@H]5/C=C\CCCCCCC(=O)N4C3)cc(-c3nc(C(C)C)cs3)nc2c1 [Compound 26]
